# Laboratory results published in US10597388B2, “Pyridazinone herbicides” (FMC CORPORATION, priority 2014, dated 2020).
# Columns and labels:
# Assay in all cases: Test D controlled growth environment herbicide test, pre- and postemergence
# Type in all cases: in vivo
# [1] = test system: barley, spring (spring barley, Hordeum vulgare)
# Procedure, shortened: (§1)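 Pre-emergence: seeds sown in silt loam soil were sprayed with compound in a non-phytotoxic solvent mix containing surfactant. Post-emergence: plants at 2 to 18 cm (1- to 4-leaf stage) in peat moss/vermiculite medium got the same formulation. Visual 0–100 rating versus controls after 14 to 21 d.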
# [2] = test system: barley, winter (winter barley, Hordeum vulgare)
# Procedure, shortened: as §1
# [3] = test system: bluegrass (annual bluegrass, Poa annua)
# Procedure, shortened: as §1
# [4] = test system: buckwheat, wild (wild buckwheat, Polygonum convolvulus)
# Procedure, shortened: as §1
# [5] = test system: canarygrass (Phalaris minor)
# Procedure, shortened: as §1
# [6] = test system: chamomile (scentless chamomile, Matricaria inodora); details: Preemergence
# Procedure, shortened: as §1
# [7] = test system: field poppy (Papaver rhoeas)
# Procedure, shortened: as §1
# [8] = test system: field violet (Viola arvensis); details: Preemergence
# Procedure, shortened: as §1
# [9] = test system: galium (catchweed bedstraw, Galium aparine)
# Procedure, shortened: as §1
# kochia (Kochia scoparia) = test system: kochia (Kochia scoparia)
# Procedure, shortened: as §1
# [10] = test system: lambsquarters (Chenopodium album)
# Procedure, shortened: as §1
# [11] = test system: pigweed (Amaranthus retroflexus)
# Procedure, shortened: as §1
# [12] = test system: radish, wild (wild radish, Raphanus raphanistrum)
# Procedure, shortened: as §1
# [13] = test system: windgrass (Apera spica-venti)
# Procedure, shortened: as §1
# [14] = Postemergence, 31 g ai/ha, scale 0 to 100 (0 no effect, 100 complete control)
# [15] = Postemergence, 125 g ai/ha, visual rating on scale 0 (no effect) to 100 (complete control), 14 to 21 d
# [16] = Postemergence, 250 g ai/ha, scale 0 to 100 (0 no effect, 100 complete control)
# [17] = Preemergence, 62 g ai/ha, scale 0 to 100 (0 no effect, 100 complete control)
# [18] = Preemergence, 125 g ai/ha, scale 0 to 100 (0 no effect, 100 complete control)
# [19] = Preemergence, 250 g ai/ha, scale 0 to 100, 0 no effect, 100 complete control
# [20] = postemergence, 62 g ai/ha, scale 0 to 100, 0 no effect, 100 complete control
# [21] = 62 g ai/ha, scale 0 to 100 (0 no effect, 100 complete control)
# [22] = 125 g ai/ha, scale 0 to 100 (0 no effect, 100 complete control)
# [23] = 250 g ai/ha, scale 0 to 100, 0 no effect, 100 complete control
smiles,measurement,setting,value
CCc1sc2ccc(C)cc2c1-c1c(O)c(C)nn(C)c1=O [Compound 47],"Barley, Spring plant response rating",[1]; [14],0
same,"Plant response rating, Barley, Spring",[1]; [15],0
same,"Plant response rating, Barley, Spring",[1]; [16],0
same,"Plant response rating (scale of 0 to 100), Barley, Spring","[1]; Preemergence, 31 g ai/ha",0
same,"Plant response rating, Barley, Spring",[1]; [17],5
same,"Plant response rating, Barley, Spring",[1]; [18],15
same,"Barley, Spring plant response rating",[1]; [19],15
same,"Plant response rating, Barley, Spring",[1]; [20],0
same,"Barley, Winter plant response rating",[2]; [14],10
same,"Plant response rating, Barley, Winter",[2]; [15],15
same,"Plant response rating, Barley, Winter",[2]; [16],15
same,"Plant response rating (scale of 0 to 100), Barley, Winter","[2]; Preemergence, 31 g ai/ha",0
same,"Plant response rating, Barley, Winter",[2]; [17],0
same,"Plant response rating, Barley, Winter",[2]; [18],5
same,"Barley, Winter plant response rating",[2]; [19],10
same,"Plant response rating, Barley, Winter",[2]; [20],10
same,Bluegrass plant response rating,[3]; [14],5
same,"Plant response rating, Bluegrass",[3]; [15],10
same,"Plant response rating, Bluegrass",[3]; [16],15
same,"Plant response rating (scale of 0 to 100), Bluegrass","[3]; Preemergence, 31 g ai/ha",0
same,"Plant response rating, Bluegrass",[3]; [17],20
same,"Plant response rating, Bluegrass",[3]; [18],20
same,Bluegrass plant response rating,[3]; [19],20
same,"Plant response rating, Bluegrass",[3]; [20],10
same,"Buckwheat, Wild plant response rating",[4]; [14],60
same,"Plant response rating, Buckwheat, Wild",[4]; [15],90
same,"Plant response rating, Buckwheat, Wild",[4]; [16],100
same,"Plant response rating (scale of 0 to 100), Buckwheat, Wild","[4]; Preemergence, 31 g ai/ha",70
same,"Plant response rating, Buckwheat, Wild",[4]; [17],60
same,"Plant response rating, Buckwheat, Wild",[4]; [18],70
same,"Plant response rating, Buckwheat, Wild",[4]; [19],85
same,"Plant response rating, Buckwheat, Wild",[4]; [20],75
same,Canarygrass plant response rating,[5]; [14],0
same,"Plant response rating, Canarygrass",[5]; [15],0
same,"Plant response rating, Canarygrass",[5]; [16],0
same,"Plant response rating (scale of 0 to 100), Canarygrass","[5]; Preemergence, 31 g ai/ha",0
same,"Plant response rating, Canarygrass",[5]; [17],0
same,"Plant response rating, Canarygrass",[5]; [18],0
same,"Plant response rating, Canarygrass",[5]; [19],5
same,"Plant response rating, Canarygrass",[5]; [20],0
same,"Plant response rating (scale of 0 to 100), Chamomile",[6]; 31 g ai/ha,80
same,"Plant response rating, Chamomile",[6]; [21],80
same,"Plant response rating, Chamomile",[6]; [22],85
same,"Plant response rating, Chamomile",[6]; [23],85
same,Field Poppy plant response rating,[7]; [14],80
same,"Plant response rating, Field Poppy",[7]; [15],100
same,"Plant response rating, Field Poppy",[7]; [16],100
same,"Plant response rating (scale of 0 to 100), Field Poppy","[7]; Preemergence, 31 g ai/ha",60
same,"Plant response rating, Field Poppy",[7]; [17],100
same,"Plant response rating, Field Poppy",[7]; [18],100
same,"Plant response rating, Field Poppy",[7]; [19],100
same,"Plant response rating, Field Poppy",[7]; [20],100
same,"Plant response rating (scale of 0 to 100), Field Violet",[8]; 31 g ai/ha,95
same,"Plant response rating, Field Violet",[8]; [21],100
same,"Plant response rating, Field Violet",[8]; [22],100
same,"Plant response rating, Field Violet",[8]; [23],100
same,Galium plant response rating,[9]; [14],65
same,"Plant response rating, Galium",[9]; [15],75
same,"Plant response rating, Galium",[9]; [16],80
same,"Plant response rating (scale of 0 to 100), Galium","[9]; Preemergence, 31 g ai/ha",85
same,"Plant response rating, Galium",[9]; [17],95
same,"Plant response rating, Galium",[9]; [18],100
same,"Plant response rating, Galium",[9]; [19],100
same,"Plant response rating, Galium",[9]; [20],75
same,Kochia plant response rating,kochia (Kochia scoparia); [14],45
same,"Plant response rating, Kochia",kochia (Kochia scoparia); [15],95
same,"Plant response rating, Kochia",kochia (Kochia scoparia); [16],100
same,"Plant response rating (scale of 0 to 100), Kochia","kochia (Kochia scoparia); Preemergence, 31 g ai/ha",10
same,"Plant response rating, Kochia",kochia (Kochia scoparia); [17],10
same,"Plant response rating, Kochia",kochia (Kochia scoparia); [18],35
same,"Plant response rating, Kochia",kochia (Kochia scoparia); [19],40
same,"Plant response rating, Kochia",kochia (Kochia scoparia); [20],70
same,Lambsquarters plant response rating,[10]; [14],45
same,"Plant response rating, Lambsquarters",[10]; [15],70
same,"Plant response rating, Lambsquarters",[10]; [16],70
same,"Plant response rating (scale of 0 to 100), Lambsquarters","[10]; Preemergence, 31 g ai/ha",100
same,"Plant response rating, Lambsquarters",[10]; [17],100
same,"Plant response rating, Lambsquarters",[10]; [18],100
same,"Plant response rating, Lambsquarters",[10]; [19],100
same,"Plant response rating, Lambsquarters",[10]; [20],50
same,Pigweed plant response rating,[11]; [14],75
same,"Plant response rating, Pigweed",[11]; [15],100
same,"Plant response rating, Pigweed",[11]; [16],100
same,"Plant response rating (scale of 0 to 100), Pigweed","[11]; Preemergence, 31 g ai/ha",70
same,"Plant response rating, Pigweed",[11]; [17],100
same,"Plant response rating, Pigweed",[11]; [18],100
same,"Plant response rating, Pigweed",[11]; [19],100
same,"Plant response rating, Pigweed",[11]; [20],75
same,"Radish, Wild plant response rating",[12]; [14],5
same,"Plant response rating, Radish, Wild",[12]; [15],5
same,"Plant response rating, Radish, Wild",[12]; [16],20
same,"Plant response rating (scale of 0 to 100), Radish, Wild","[12]; Preemergence, 31 g ai/ha",20
same,"Plant response rating, Radish, Wild",[12]; [17],25
same,"Plant response rating, Radish, Wild",[12]; [18],100
same,"Plant response rating, Radish, Wild",[12]; [19],85
same,"Plant response rating, Radish, Wild",[12]; [20],10
same,Windgrass plant response rating,[13]; [14],10
same,"Plant response rating, Windgrass",[13]; [15],15
same,"Plant response rating, Windgrass",[13]; [16],15
same,"Plant response rating (scale of 0 to 100), Windgrass","[13]; Preemergence, 31 g ai/ha",5
same,"Plant response rating, Windgrass",[13]; [17],5
same,"Plant response rating, Windgrass",[13]; [18],20
same,"Plant response rating, Windgrass",[13]; [19],75
same,"Plant response rating, Windgrass",[13]; [20],10
